# Source: US6982348B2, “Aminoethanol derivatives” (Takeda Pharmaceutical Company Limited, priority 2001, dated 2006)
# Where a name gives a salt, the structure may show the parent alone.
row,Compound,melting point [°C]
1,"O=C(N[C@H](Cc1ccc(C(F)(F)F)cc1)[C@@H](O)c1ccc(F)cc1)c1cccc2cc([N+](=O)[O-])ccc12 (racemic) [Example 51, N-[(1RS,2SR)-2-(4-fluorophenyl)-2-hydroxy-1-[4-(trifluoromethyl)benzyl]ethyl]-6-nitronaphthalene-1-carboxamide]",206 to 207
2,"Cc1oc(C(C)C)c(C(=O)N[C@H](Cc2ccc(C(F)(F)F)cc2)[C@@H](O)c2ccc(F)cc2)c1-c1ccc(F)cc1 (racemic) [Example 73, 4-(4-fluorophenyl)-N-[(1RS,2SR)-2-(4-fluorophenyl)-2-hydroxy-1-[4-(trifluoromethyl)benzyl]ethyl]-5-methyl-2-(1-methylethyl)furan-3-carboxamide]",134 to 136
3,"O=C(NC(Cc1ccc(C(F)(F)F)cc1)C(O)c1ccc(F)cc1)c1ccc(-c2ccccc2)cc1 (racemic) [Example 20, N-[2-(4-fluorophenyl)-2-hydroxy-1-[[4-(trifluoromethyl)phenyl]methyl]ethyl]-4-phenylbenzamide]",178 to 185
4,"O=C(CC(F)(F)F)N[C@H](Cc1ccc(C(F)(F)F)cc1)[C@@H](O)c1ccc(F)cc1 (racemic) [Example 109, N-[(1RS,2SR)-2-(4-fluorophenyl)-2-hydroxy-1-[4-(trifluoromethyl)benzyl]ethyl]-3,3,3-trifluoropropionamide]",179 to 180
5,"Cc1ccc(C(=O)N[C@H](Cc2ccc(C(F)(F)F)cc2)[C@@H](O)c2ccc(F)cc2)c2ccccc12 (racemic) [Example 36, N-((1RS,2SR)-2-(4-fluorophenyl)-2-hydroxy-1-((4-(trifluoromethyl)phenyl)methyl)ethyl)-4-methyl-1-naphthalenecarboxamide]",198 to 199
6,"O=C(Nc1cccc2ccccc12)N[C@H](Cc1ccc(C(F)(F)F)cc1)[C@@H](O)c1ccc(F)cc1 (racemic) [Example 118, N-((1RS,2SR)-2-(4-fluorophenyl)-2-hydroxy-1-((4-(trifluoromethyl)phenyl)methyl)ethyl)-N′-(1-naphthalenyl)urea]",222 to 223
7,"O=C(N[C@H](Cc1ccccc1C(F)(F)F)[C@@H](O)c1ccc(F)cc1)c1cccc2ccccc12 (racemic) [Example 140, N-((1RS,2SR)-2-(4-fluorophenyl)-2-hydroxy-1-((2-(trifluoromethyl)phenyl)methyl)ethyl)-1-naphthalenecarboxamide]",193 to 194
8,"O=C(N[C@H](Cc1ccc(C(F)(F)F)cc1)[C@@H](O)c1ccc(F)cc1)c1cccc(Oc2ccccc2)c1 (racemic) [Example 107, N-((1RS,2SR)-2-(4-fluorophenyl)-2-hydroxy-1-((4-(trifluoromethyl)phenyl)methyl)ethyl)-3-phenoxybenzamide]",144 to 145
9,"O=C(N[C@H](Cc1ccc(C(F)(F)F)cc1)[C@@H](O)c1ccc(F)cc1)c1ccnc2ccccc12 (racemic) [Example 57, N-((1RS,2SR)-2-(4-fluorophenyl)-2-hydroxy-1-((4-(trifluoromethyl)phenyl)methyl)ethyl)-4-quinolinecarboxamide]",227 to 228
10,"O=C(N[C@H](Cc1ccc(C(F)(F)F)cc1)[C@@H](O)c1ccc(F)cc1)c1cccc2c([N+](=O)[O-])cccc12 (racemic) [Example 40, N-[(1RS,2SR)-2-(4-fluorophenyl)-2-hydroxy-1-[4-(trifluoromethyl)benzyl]ethyl]-5-nitronaphthalene-1-carboxamide]",211 to 214
11,"O=C(N[C@H](Cc1cccc(OCC(F)(F)C(F)F)c1)[C@@H](O)c1ccc(F)cc1)c1ccc(F)c2ccccc12 (racemic) [Example 172, N-((1RS,2SR)-2-(4-fluorophenyl)-2-hydroxy-1-((3-(2,2,3,3-tetrafluoropropyloxy)phenyl)methyl)ethyl)-4-fluoro-1-naphthalenecarboxamide]",160 to 161

# Other lines, results leading:
row,melting point [°C],Compound
1,197 to 198,"O=C(N[C@H](Cc1ccc(C(F)(F)F)cc1)[C@@H](O)c1ccc(F)c(F)c1)c1ccc(F)c2ccccc12 (racemic) [Example 183, N-((1RS,2SR)-2-(3,4-difluorophenyl)-2-hydroxy-1-((4-(trifluoromethyl)phenyl)methyl)ethyl)-4-fluoro-1-naphthalenecarboxamide]"
2,154 to 155,"O=C(O)CCC(=O)O[C@H](c1ccc(F)cc1)[C@H](Cc1cccc(OC(F)(F)C(F)F)c1)NC(=O)c1cccc2c1C=CCCC2 (racemic) (as salt: succinate) [Example 384, (1RS,2SR)-2-[(6,7-dihydro-5H-benzo[a]cyclohepten-1-ylcarbonyl)amino]-1-(4-fluorophenyl)-3-[3-(1,1,2,2-tetrafluoroethoxy)phenyl]propyl hydrogen succinate]"
3,155 to 156,"O=C(CCCc1ccccc1)N[C@H](Cc1ccc(F)cc1)[C@@H](O)c1ccc(C(F)(F)F)cc1 (racemic) [Example 215, N-((1RS,2SR)-1-((4-fluorophenyl)methyl)-2-hydroxy-2-(4-(trifluoromethyl)phenyl)ethyl)-4-phenylbutyramide]"
4,177 to 178,"O=C(N[C@H](Cc1cccc(OC(F)(F)C(F)F)c1)[C@@H](O)c1cccc(Cl)c1)c1ccc(F)c2ccccc12 (racemic) [Example 264, 4-fluoro-N-{(1RS,2SR)-2-(3-chlorophenyl)-2-hydroxy-1-[3-(1,1,2,2-tetrafluoroethoxy)benzyl]ethyl}-1-naphthamide]"
5,148 to 149,"O=C(N[C@H](Cc1cccc(OC(F)(F)C(F)F)c1)[C@@H](O)c1ccc(F)nc1)c1ccc(F)c2ccccc12 (racemic) [Example 224, N-((1RS,2SR)-2-(6-fluoropyridin-3-yl)-2-hydroxy-1-((3-(1,1,2,2-tetrafluoroethoxy)phenyl)methyl)ethyl)-4-fluoro-1-naphthalenecarboxamide]"
6,139 to 140,"O=C(CCCc1cccs1)N[C@H](Cc1ccc(C(F)(F)F)cc1)[C@@H](O)c1cccc2ccccc12 (racemic) [Example 191, N-((1RS,2SR)-2-hydroxy-2-(1-naphthalenyl)-1-((4-(trifluoromethyl)phenyl)methyl)ethyl)-4-(2-thienyl)butyramide]"
7,129 to 130,"CC(C)(C)OC(=O)N[C@H](Cc1cccc(OC(F)(F)C(F)F)c1)[C@@H](O)c1ccc(Oc2ccccc2)cn1 (racemic) [Example 254, tert-butyl (1RS,2RS)-2-hydroxy-2-(5-phenoxypyridin-2-yl)-1-[3-(1,1,2,2-tetrafluoroethoxy)benzyl]ethylcarbamate]"
8,165 to 166,"CC(C)(C)COc1cccc(C[C@@H](NC(=O)c2ccc(F)c3ccccc23)[C@@H](O)c2cccc(Cl)c2)c1 (racemic) [Example 366, N-[(1RS,2SR)-1-[3-(neopentyloxy)benzyl]-2-(3-chlorophenyl)-2-hydroxyethyl]-4-fluoro-1-naphthamide]"
9,136 to 137,"O=C(N[C@H](Cc1cccc(OC(F)(F)C(F)F)c1)[C@@H](O)c1ccc(F)cc1)OCc1ccccc1 (racemic) [Example 287, benzyl N-[(1RS,2SR)-2-(4-fluorophenyl)-2-hydroxy-1-[3-(1,1,2,2-tetrafluoroethoxy)benzyl]ethyl]carbamate]"
